For experiment [1], the target named is T1, human 5-HT4(b) receptors (Homo sapiens, UniProt Q13639).
T1 construct: expressed in transfected cells; membranes prepared
The experiment can be described thus: Adenylyl cyclase assay in membranes of HEK293 cells stably expressing human 5-HT4(b) receptors. Particulars: for Kb: each line one individual measurement, read-out: Antagonist pKb value (individual measurements) (converted). It is filed as biochemical. The method, then:
(§1) Establishment of HEK293 Cell Lines Stably Expressing Human 5-HT4(b) Receptors
(§2) The development of HEK293 cell lines stably expressing human 5-HT4(b) receptors was described and published previously (Bach et al. 2001). Briefly, HEK293 cells (ATCC) were grown in Dulbecco's modified Eagle's medium with 10% fetal calf serum and penicillin (100 U/ml) and streptomycin (100 μg/ml). Cells were transfected with plasmid DNA (pcDNA3.1(−) containing human 5-HT4(b) receptor cDNA) using SuperFect Transfection Reagent (QIAGEN) according to the manufacturers protocol. Serial dilutions of transfected cells were plated in 96 well plates containing G418 (geneticin; Amersham) at 0.4 mg/ml, and isolated single colonies of cells transformed to the neomycin-resistant phenotype were expanded and tested for expression of serotonin receptors by measuring serotonin-stimulated adenylyl cyclase activity (Themmen et al. 1993). Transformed cells were always grown in the presence of G418 (0.4 mg/ml). For binding and adenylyl cyclase analysis, stable cell lines were grown and maintained in UltraCULTURE™ general purpose serum-free medium (BioWhittaker, Walkersville, Md., USA), supplemented with L-glutamine (2 mM), penicillin (100 U/ml) and streptomycin (100 μg/ml).
Membrane Preparation for Radioligand Binding and Adenylyl Cyclase Assay
Membranes were prepared from stably transfected HEK293 cells cultured on 150-mm cell culture dishes and grown to 80% confluence in serum-free medium (UltraCULTURE™, BioWhittaker) with penicillin (10 U/ml) and 2 mM L-Glutamine (BioWhittaker). Cells were washed twice with 10 ml ice-cold HBSS, scraped with a rubber policeman in 10 ml ice-cold HBSS and collected by centrifugation at 800 g for 5 min at 4° C. The cell pellet was resuspended in 1 ml/dish ice-cold STE buffer (27% (w/v) sucrose, 50 mM Tris-HCl, pH 7.5 at 20° C., 5 mM EDTA) and homogenized with an Ultra-Turrax (IKA) homogenizer, using five 10 s bursts with 30 s cooling in ice-water between bursts. To remove nuclei, the homogenate was centrifuged at 300 g for 5 min at 4° C. and the supernatant was further centrifuged at 17000 g for 20 min at 4° C. and the supernatant removed. The crude membrane pellet was resuspended with ten strokes of tight fitting pestle B in a Dounce glass-glass homogenizer in 1 ml/dish ice-cold TE (50 mM Tris-HCl, pH 7.5 at RT, 5 mM EDTA). This procedure was repeated twice and the resuspended membranes were finally aliquoted and flash frozen in liquid nitrogen and stored at −70° C. until use.
Adenylyl cyclase activity was measured by determining conversion of [α-^32P]ATP to [^32P]cAMP in membranes prepared in STE by homogenization of cells grown and washed as described above in a Dounce glass-glass homogenizer by 10 strokes with the tight-fitting pestle. Membranes were kept on ice prior to assay. Adenylyl cyclase activities were measured on 10-μl aliquots in a final volume of 50 μl in the presence of 0.1 mM [α-^32P]ATP (1-2×10^6 cpm/assay), 4 mM MgCl2, 20 μM GTP, 1 mM EDTA, 1 mM [^3H]cAMP (ca. 10,000 cpm/assay), 1 μM 3-isobutyl-1-methyl xanthine (IBMX; Sigma), a nucleoside triphosphate regenerating system consisting of 20 mM creatine phosphate (Sigma), 0.2 mg/ml creatine phosphokinase (Sigma) and 40 U/ml myokinase (Sigma) and additives described in the text and figures. When forskolin (Calbiochem, La Jolla, Calif., USA) was used the concentration was 100 μM. Incubations were for 20 min at 32EC. Cyclic AMP formed was quantified by the double column chromatography system of Salomon et al. (1974) as modified by Bockaert et al. (1976).
Binding and adenylyl cyclase data were analyzed by non-linear regression using Microsoft Excel with the Solver add-in, using the below equations.
Activation of adenylyl cyclase—The data were fit to the equation Y=a+(b−a)x/(c+x) where a is basal adenylyl cyclase activity, b is maximal adenylyl cyclase activity stimulated by the agonist, c is EC50, and x is the concentration of agonist.

Experiment [2] deals with T1, human 5-HT4(b) receptors. The experiment can be described thus: Radioligand binding assay with [3H]GR113808 on membranes of HEK293 cells stably expressing human 5-HT4(b) receptors. The settings on record: competition with [3H]GR113808, HEK293 membranes, each line one individual measurement, read-out: Binding affinity (pKd value) (individual measurements) (converted). The method, then: as §1, §2
Membrane Preparation for Radioligand Binding and Adenylyl Cyclase Assay […]
Binding assays were performed in 96-well, round-bottom microtiter plates with total reaction volumes of 50-200 μl, containing the indicated concentration of [^3H]GR113808 with or without competing unlabelled ligand in a binding buffer containing 50 mM Tris-HCl (pH 7.5 at RT), 1 mM EDTA, 5 mM EGTA, 2 mM MgCl2, 1 mM ascorbate, 0.1% BSA and 100 μM GTP. […] The filters were dried and counted at approximately […] efficiency in a Top-Count liquid scintillation counter (Packard), using 20 μl per filter well of Micro-Scint liquid scintillation cocktail (Packard).
Binding and adenylyl cyclase data were analyzed by non-linear regression using Microsoft Excel with the Solver add-in, using the below equations. […]

Structures are written as SMILES. “And” between values parts separate entries of the source, which are not always exact repeats. Equal entries are not always repeated.

T1 sequence (Q13639 whole entry): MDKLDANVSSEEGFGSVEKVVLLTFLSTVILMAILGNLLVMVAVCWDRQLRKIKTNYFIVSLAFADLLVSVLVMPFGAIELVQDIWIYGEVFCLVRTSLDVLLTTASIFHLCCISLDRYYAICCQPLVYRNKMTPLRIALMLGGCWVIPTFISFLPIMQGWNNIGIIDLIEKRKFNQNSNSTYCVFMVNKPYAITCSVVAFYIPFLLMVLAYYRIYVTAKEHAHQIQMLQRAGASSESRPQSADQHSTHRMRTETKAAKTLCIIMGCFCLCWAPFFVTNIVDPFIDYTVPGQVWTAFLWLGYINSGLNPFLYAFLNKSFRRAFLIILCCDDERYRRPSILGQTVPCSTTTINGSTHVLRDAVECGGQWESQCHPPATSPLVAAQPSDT

Turning to `CCCCN1CCC(CNC(=O)c2c3n(c4ccccc24)CCCO3)CC1` [SB207266], at human 5-HT4(b) receptors [1], the Agonist/Antagonist properties result is reported as “Antagonist”; the Kb was 0.132 nM and 0.17 nM. Besides, the Kd on human 5-HT4(b) receptors [2] was 0.0174 nM.
In the case of `Cn1cc(C(=O)OCC2CCN(CCNS(C)(=O)=O)CC2)c2ccccc21` [GR113808, 1-methyl-1H-indole-3-carboxylic acid, [1-[2-[(methylsulfonyl)amino]ethyl]-4-piperidinyl]methyl ester], on human 5-HT4(b) receptors [1], the Agonist/Antagonist properties result is on record as “Antagonist”; the Kb was 0.105 nM and 0.135 nM and 0.17 nM and 0.224 nM and 0.151 nM and 0.178 nM. Also, the Kd on human 5-HT4(b) receptors [2] is 0.115 nM and 0.049 nM and 0.0617 nM and 0.0195 nM.
Take `CCCCN1CCC(COC(=O)c2c[nH]c3ccccc23)CC1` [DDL-6002]: at human 5-HT4(b) receptors [1], the Agonist/Antagonist properties result is reported as “Antagonist” and the Kb is 0.129 nM. The Kd at human 5-HT4(b) receptors [2] was 0.0282 nM and 0.0219 nM.

For the origin of these results see US7834010B2, “Modulators of peripheral 5-HT receptors” (Serodus AS, priority 2003, dated 2010).
